Test results: patent publication US20030109675A1 (priority 2001, published 2003)
Where “and” joins values, the source holds several entries; their conditions need not be identical. Equal values may be shown once.

Legend:
DegP [1] = target: T1, DegP (Escherichia coli, UniProt P0C0V0); conditions: 7-mer and 12-mer Abz-tagged cellulose-bound peptides, 0.28 mg/ml DegP, 5 mM MgCl2, up to 28 hours
DegP [2] = target: T1, DegP; conditions: for cleavage of fluorescence-quench peptide by DegP: 8 μM (SPCJ-12) or 10 μM peptide, 25 mM HEPES, 5 mM CaCl2, 45° C.
DegP [3] = target: T1, DegP; conditions: scaled-up (5 ml) cleavage reaction, MALDI-TOF MS of products
DegP [4] = target: T1, DegP; conditions: cited from earlier work
DegP protease = DegP protease (Escherichia coli, UniProt P0C0V0); conditions: for effect of divalent cation on DegP cleavage of PapA-6H4A-rcm: 5 mM
[5] = target: SPCJ-14 - Abz-[…]-DAP(Dnp)-NH2

LDIELVNCDITA
cleavage of PapA library peptide by DegP in solid-phase scan (DegP [1]): cleaved by DegP

ELVNCDI
cleavage of PapA library peptide by DegP in solid-phase scan (DegP [1]): cleaved by DegP

Abz-HYTAVVKKSSAV-DAP(Dnp)-NH2 [SPCJ-12]
cleavage of fluorescence-quench peptide by DegP (DegP [2]; 5 μg DegP): cleaved SPCJ-12 in a time-dependent fashion
DegP cleavage site in substrate peptide (DegP [3]): cleaved between the paired valine residues

NVLHYTA
cleavage of PapA library peptide by DegP in solid-phase scan (DegP [1]): cleaved by DegP

Abz-HYTAVVK-DAP(Dnp)-NH2 [SPCJ-13]
cleavage of fluorescence-quench peptide by DegP (DegP [2]; 5 μg DegP): cleaved SPCJ-13 in a time-dependent fashion
DegP cleavage site in substrate peptide (DegP [3]): cleavage between the paired valine residues

DGENVLH
cleavage of PapA library peptide by DegP in solid-phase scan (DegP [1]): cleaved by DegP

O=S(=O)(F)Cc1ccccc1 [phenylmethylsulfonylfluoride]
inhibition of DegP activity (DegP [4]): not inhibited

[Ca+2].[Cl-].[Cl-] [CaCl2, reference compound]
effect of divalent cation on DegP cleavage of PapA-6H4A-rcm (DegP protease): stimulated DegP cleavage

NGHSDEL
cleavage of PapA library peptide by DegP in solid-phase scan (DegP [1]): cleaved by DegP

TLKDGENVLHYT
cleavage of PapA library peptide by DegP in solid-phase scan (DegP [1]): cleaved by DegP

HYTAVVKKSSAV
cleavage of PapA library peptide by DegP in solid-phase scan (DegP [1]): cleaved by DegP

KLAFTGPIVNGH
cleavage of PapA library peptide by DegP in solid-phase scan (DegP [1]): cleaved by DegP

FTGPIVNGHSDE
cleavage of PapA library peptide by DegP in solid-phase scan (DegP [1]): cleaved by DegP

HYTAVVK
cleavage of PapA library peptide by DegP in solid-phase scan (DegP [1]): cleaved by DegP

KSMCMKLSFS [SPCJ-1]
PapA-6H4A-rcm cleaved by DegP in presence of activating peptide, 60 minutes (DegP protease; 200 μM peptide, 5 μg DegP, 40 μg substrate, 5 mM MgCl2, 45° C., 60 minutes): 50% and > 50%
PapA-6H4A-rcm cleaved by DegP in presence of activating peptide, four hours (DegP protease; 200 μM peptide, 5 μg DegP, 40 μg substrate, 5 mM MgCl2, 45° C., four hours): ~90%
effect of peptide on DegP cleavage of SPCJ-13 (DegP [2]; 200 μM peptide added at onset of incubation, 5 μg DegP): enhanced cleavage of SPCJ-13

Abz-HYTASSK-DAP(Dnp)-NH2 [SPCJ-14]
cleavage of fluorescence-quench peptide by DegP (DegP [2]; 5 μg DegP): lack of cleavage
inhibition of DegP cleavage of SPCJ-13 (DegP [2]; 10-fold molar excess (100 μM vs 10 μM SPCJ-13), 30 minutes pre-incubation with 5 μg DegP, then 60 minutes): blocked cleavage of SPCJ-13

[Cl][Mn][Cl] [MnCl2, reference compound]
effect of divalent cation on DegP cleavage of PapA-6H4A-rcm (DegP protease): stimulated DegP cleavage

[Cl-].[Cl-].[Mg+2] [MgCl2, reference compound]
input PapA-6H4A-rcm cleaved by DegP in presence of divalent cation (DegP protease; 5 mM cation, 20 μg DegP, 20 μg substrate, 4 hours at 45° C.): ~50%

B1: DegP protease (protein)
chain: AETSSATTAQQMPSLAPMLEKVMPSVVSINVEGSTTVNTPRMPRNFQQFFGDDSPFCQEGSPFQSSPFCQGGQGGNGGGQQQKFMALGSGVIIDADKGYVVTNNHVVDNATVIKVQLSDGRKFDAKMVGKDPRSDIALIQIQNPKNLTAIKMADSDALRVGDYTVAIGNPFGLGETVTSGIVSALGRSGLNAENYENFIQTDAAINRGNSGGALVNLNGELIGINTAILAPDGGNIGIGFAIPSNMVKNLTSQMVEYGQVKRGELGIMGTELNSELAKAMKVDAQRGAFVSQVLPNSSAAKAGIKAGDVITSLNGKPISSFAALRAQVGTMPVGSKLTLGLLRDGKQVNVNLELQQSSQNQVDSSSIFNGIEGAEMSNKGKDQGVVVNNVKTGTPAAQIGLKKGDVIIGANQQAVKNIAELRKVLDSKPSVLALNIQRGDSTIYLLMQ
cleavage in the fluorescent-quench peptide assay [5]: SPCJ-14 was not cleaved
